22 compounds from ChEMBL document CHEMBL1135217, “N-aryl 2,6-dimethoxybiphenylalanine analogues as VLA-4 antagonists” (Bioorg Med Chem Lett, 2002) can be followed below.

In series [1] the target is T1, Integrin alpha-4/beta-1 (Homo sapiens, UniProt P05556+P13612). Nature of the series: In vitro inhibition of [125I]VCAM-Ig binding to very late antigen -4 on jurkat cells. It counts as cell-based.
Series [2] deals with T1, Integrin alpha-4/beta-1. Nature of the series: Inhibition of [125I]-VCAM-Ig binding to very late antigen -4 (VLA-4) on Jurkat cells at 4 uM. Format: cell-based.
Series [3] is filed under the species Rattus norvegicus. Nature of the series: Volume of distribution at steady state in Dawley rat. Particulars: in vivo.
The nature of series [4]: Clearance in Dawley rat. Particulars: Sprague-Dawley, plasma, read-out: Clp. Format: ADME, organism-based.
The nature of series [5]: Bioavailability in rat (Sprague-Dawley). Particulars: in vivo. It counts as ADME, organism-based.
Series [6] is filed under the species Rattus norvegicus. The experiment in a line: Half-life was determined in Dawley rat. Particulars: in vivo.

The term IC50 denotes the concentration that gives 50% inhibition. A word on the inhibition: it is the drop in the measured response relative to a control, in per cent. A high value points to a strong effect. For orientation: Vdss means the apparent volume that relates the amount in the body to the concentration in plasma or blood. A word on the bioavailability: it is dose-corrected exposure relative to a reference, in per cent. A low value points to poor availability.

T1 sequence (P05556 whole entry): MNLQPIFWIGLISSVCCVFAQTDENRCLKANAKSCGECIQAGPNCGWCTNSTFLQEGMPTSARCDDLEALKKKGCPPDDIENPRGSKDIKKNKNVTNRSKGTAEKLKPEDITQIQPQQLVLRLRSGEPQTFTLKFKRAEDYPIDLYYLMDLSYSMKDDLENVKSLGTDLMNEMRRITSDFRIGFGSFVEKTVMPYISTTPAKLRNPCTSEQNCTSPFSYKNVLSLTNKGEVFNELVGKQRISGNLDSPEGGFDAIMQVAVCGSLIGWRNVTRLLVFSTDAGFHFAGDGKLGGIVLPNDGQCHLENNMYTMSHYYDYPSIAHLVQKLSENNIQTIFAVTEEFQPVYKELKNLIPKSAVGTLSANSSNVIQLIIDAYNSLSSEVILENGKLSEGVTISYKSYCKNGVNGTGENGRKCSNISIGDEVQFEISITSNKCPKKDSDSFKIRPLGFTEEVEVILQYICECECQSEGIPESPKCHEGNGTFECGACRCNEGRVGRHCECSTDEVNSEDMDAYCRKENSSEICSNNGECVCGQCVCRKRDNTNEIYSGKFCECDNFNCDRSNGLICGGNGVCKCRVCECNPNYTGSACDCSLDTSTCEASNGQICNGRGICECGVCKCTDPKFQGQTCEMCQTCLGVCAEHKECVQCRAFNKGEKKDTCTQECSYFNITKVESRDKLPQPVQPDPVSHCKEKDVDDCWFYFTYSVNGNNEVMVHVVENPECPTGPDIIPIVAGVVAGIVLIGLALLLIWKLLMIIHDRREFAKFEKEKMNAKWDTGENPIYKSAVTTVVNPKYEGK
T1 sequence (P13612 whole entry): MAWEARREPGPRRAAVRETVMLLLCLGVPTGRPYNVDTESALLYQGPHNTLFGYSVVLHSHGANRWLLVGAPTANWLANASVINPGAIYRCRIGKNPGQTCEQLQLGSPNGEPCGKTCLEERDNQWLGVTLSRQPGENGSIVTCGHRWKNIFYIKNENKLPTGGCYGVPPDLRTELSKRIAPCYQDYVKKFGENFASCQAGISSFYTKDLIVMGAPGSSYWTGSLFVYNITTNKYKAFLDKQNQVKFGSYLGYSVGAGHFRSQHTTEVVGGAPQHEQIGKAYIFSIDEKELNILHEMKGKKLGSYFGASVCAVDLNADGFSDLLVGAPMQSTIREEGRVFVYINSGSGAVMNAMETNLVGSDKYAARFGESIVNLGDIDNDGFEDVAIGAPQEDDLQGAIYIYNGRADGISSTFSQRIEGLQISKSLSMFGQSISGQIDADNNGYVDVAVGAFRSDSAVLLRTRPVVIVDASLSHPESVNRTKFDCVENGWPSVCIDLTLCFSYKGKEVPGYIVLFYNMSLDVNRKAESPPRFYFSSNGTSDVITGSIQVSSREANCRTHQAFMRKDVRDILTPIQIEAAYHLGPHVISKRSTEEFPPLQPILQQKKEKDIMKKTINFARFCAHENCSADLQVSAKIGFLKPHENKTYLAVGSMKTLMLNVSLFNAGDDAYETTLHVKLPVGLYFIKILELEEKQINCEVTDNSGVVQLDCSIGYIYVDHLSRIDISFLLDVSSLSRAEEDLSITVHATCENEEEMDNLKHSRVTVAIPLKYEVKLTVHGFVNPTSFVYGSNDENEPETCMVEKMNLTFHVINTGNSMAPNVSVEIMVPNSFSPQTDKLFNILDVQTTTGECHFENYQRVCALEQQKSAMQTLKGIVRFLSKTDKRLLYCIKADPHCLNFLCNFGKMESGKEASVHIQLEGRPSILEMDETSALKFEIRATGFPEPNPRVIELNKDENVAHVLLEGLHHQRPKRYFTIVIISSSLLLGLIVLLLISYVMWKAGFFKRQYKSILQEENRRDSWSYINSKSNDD

With `COc1cccc(OC)c1-c1ccc(CC(Nc2cccnc2)C(=O)O)cc1` (stereo not given), the concentration for half-maximal inhibition (IC50) in series [1] was found to be 820 nM.

`COc1cccc(OC)c1-c1ccc(CC(Nc2cc(C(F)(F)F)cc(C(F)(F)F)c2)C(=O)O)cc1` (stereo not given) had an inhibition in series [2] of 46%. `COc1cccc(OC)c1-c1ccc(CC(Nc2ccc(C(=O)N3CCCC3)cn2)C(=O)O)cc1` (stereo not given) came in with an IC50 in series [1] of 23 nM.

As to `COc1cccc(OC)c1-c1ccc(CC(NC(=O)c2ccccc2)C(=O)O)cc1` (stereo not given), the IC50 in series [1] came to 1.2 nM. On the same count and under the same terms, the result for `COc1cccc(OC)c1-c1ccc(CC(Nc2ccc(S(=O)(=O)c3ccccc3)cc2)C(=O)O)cc1` (stereo not given) reads 240 nM.

`COc1cccc(OC)c1-c1ccc(CC(Nc2ccc(S(C)(=O)=O)cc2)C(=O)O)cc1` (stereo not given): the IC50 in series [1] turned out to be 97 nM. On the same count and under the same terms, the result for `COc1cccc(OC)c1-c1ccc(CC(Nc2cccc(C#N)c2)C(=O)O)cc1` (stereo not given) reads 4360 nM; that for `COc1cccc(OC)c1-c1ccc(CC(Nc2ccncc2)C(=O)O)cc1` (stereo not given), 170 nM. The compound `COc1cccc(OC)c1-c1ccc(CC(Nc2cccc(S(=O)(=O)N3CCCC3)c2)C(=O)O)cc1` (stereo not given) had a distribution volume (Vdss) in series [3] of 0.55 L/kg. The same compound had an IC50 in series [1] of 12 nM. Also, the clearance in series [4] came to 73 mL/min/kg. The bioavailability in series [5] was found to be 24%. In series [6], this compound came in with a T1/2 of 54 min. `COc1cccc(OC)c1-c1ccc(CC(Nc2ccc([N+](=O)[O-])cc2)C(=O)O)cc1` (stereo not given) displayed an IC50 in series [1] of 5250 nM. In turn, `CCCS(=O)(=O)c1cc(NC(Cc2ccc(-c3c(OC)cccc3OC)cc2)C(=O)O)ncn1` (stereo not given) came in with a Vdss in series [3] of 0.28 L/kg. Further, in series [1], the IC50 was 0.39 nM. Besides, the clearance in series [4] was 17 mL/min/kg. Also, in series [5], the bioavailability was determined as 6%. Moreover, the T1/2 in series [6] amounted to 48 min. In series [1], `COc1cccc(OC)c1-c1ccc(CC(Nc2ccc(S(=O)(=O)N3CCCC3)cc2)C(=O)O)cc1` (stereo not given) had a concentration for half-maximal inhibition (IC50) of 91 nM. Still for that read-out and setting: the value for `COc1cccc(OC)c1-c1ccc(CC(Nc2cc(Cl)cc(Cl)c2)C(=O)O)cc1` (stereo not given) was 6490 nM; that for `COc1cccc(OC)c1-c1ccc(CC(Nc2ccccc2[N+](=O)[O-])C(=O)O)cc1` (stereo not given) was 3550 nM.

With `COc1cccc(OC)c1-c1ccc(CC(Nc2ccc(C(F)(F)F)cc2)C(=O)O)cc1` (stereo not given), the inhibition in series [2] is 45%.

On to `COc1cccc(OC)c1-c1ccc(CC(Nc2ccc(C(=O)N3CCCC3)cc2)C(=O)O)cc1` (stereo not given), for which the 50% inhibitory concentration (IC50) in series [1] was 320 nM. In turn, `COc1cccc(OC)c1-c1ccc(CC(Nc2ccc(C(F)(F)F)cn2)C(=O)O)cc1` (stereo not given) registered a concentration for half-maximal inhibition (IC50) in series [1] of 3190 nM. The same measure, in the same setting: the result for `COc1cccc(OC)c1-c1ccc(CC(Nc2ccccn2)C(=O)O)cc1` (stereo not given) reads 610 nM; that for `COc1cccc(NC(Cc2ccc(-c3c(OC)cccc3OC)cc2)C(=O)O)n1` (stereo not given), 4180 nM. The same measure, in the same setting: the value for `COc1cccc(OC)c1-c1ccc(CC(Nc2ccc(C#N)cc2)C(=O)O)cc1` (stereo not given) was 4470 nM; that for `COc1cccc(OC)c1-c1ccc(CC(Nc2ccccc2)C(=O)O)cc1` (stereo not given) was 8870 nM. The same measure, in the same setting: the result for `COc1cccc(OC)c1-c1ccc(C[C@H](NC(C)=O)C(=O)O)cc1` reads 12 nM.
